# pEC50, pIC50: −log10 of the molar value.
# Key:
# PDL1/PD1 = PDL1/PD1 (Homo sapiens, UniProt Q9NZQ7); assay: PDL1/PD1 Binding Assay; conditions: PDL1-6×His 0.3 nM, PD1-Fc-Avi-Biotin 2.5 nM, Acceptor/Donor beads; read-out: PD-1/PD-L1 PPI IC50
# Description: Compounds to be tested were serially diluted in DMSO, and further diluted in assay buffer (25 mM Hepes pH 7.4, 150 mM NaCl, 0.005% Tween 20, BSA 0.01%). Diluted compounds were added to the wells with final concentration of DMSO at 1%. PDL1-6×His protein was added to the wells, mixed well with compound. The plates were incubated for 30 min at room temperature. PD1-Fc-Avi-Biotin protein was added to the wells. Final concentration of PDL1 and PD1 protein is 0.3 nM and 2.5 nM, respectively. After a binding time of 30 min at room temperature, Anti-6×His Acceptor beads (final concentration 20 ug/ml) were added to the wells, and the incubation continued for 1 h. Streptavidin Donor beads (final concentration 20 ug/mL) were added at reduced light. The plates were sealed with foil and incubated in the dark for additional 1 h or overnight before reading on an Envision reader. The IC50 values were determined by fitting the curves using a four-parameter equation in Graphpad Prism 8.
# PD-1/PD-L1 interaction = target: T1, PD-1/PD-L1 interaction (Homo sapiens, UniProt Q9NZQ7); assay: PD-1/PD-L1 NFAT Reporter Assay; format: cell-based; conditions: co-culture of PD-L1 expressing CHO cells and PD-1 overexpressing Jurkat cells, 6 hrs, NFAT luciferase
# T1 construct: expressed in transfected cells; Jurkat cells (PD-1 plus NFAT-luciferase)
# Description: Blocking the PD-1/PD-L1 interaction will release the inhibitory signal and results in TCR signaling and NFAT-mediated luciferase activity.
# CHO cells expressing surface-bound anti-CD3 antibodies and PD-L1 were first seeded overnight and treated with the compounds. Jurkat cells overexpressing PD-1 and a luciferase construct under NFAT promoter were then immediately seeded on the monolayer of CHO cells. The co-culture was then incubated for 6 hrs at 37° C. Luciferase activity was assessed by adding the ONE-Glo reagent and measuring luminescence with a plate reader. EC50 values were determined from the fit of the dose-response curves.
# T1 sequence (Q9NZQ7 19-290): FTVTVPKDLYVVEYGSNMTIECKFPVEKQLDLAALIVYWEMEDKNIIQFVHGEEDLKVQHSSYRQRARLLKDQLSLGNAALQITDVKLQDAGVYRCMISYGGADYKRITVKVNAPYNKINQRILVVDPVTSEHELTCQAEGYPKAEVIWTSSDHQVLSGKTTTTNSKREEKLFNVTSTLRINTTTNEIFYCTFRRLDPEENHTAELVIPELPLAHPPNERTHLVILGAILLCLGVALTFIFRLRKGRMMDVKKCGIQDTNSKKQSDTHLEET
# Sequence of PDL1/PD1 (Q9NZQ7 19-238 limits assumed): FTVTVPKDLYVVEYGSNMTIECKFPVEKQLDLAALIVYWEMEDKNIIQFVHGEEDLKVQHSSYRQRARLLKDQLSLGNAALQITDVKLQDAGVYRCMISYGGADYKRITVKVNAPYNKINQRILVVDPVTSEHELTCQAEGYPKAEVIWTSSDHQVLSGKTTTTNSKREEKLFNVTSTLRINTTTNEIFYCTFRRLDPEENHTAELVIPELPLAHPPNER
pIC50 (PDL1/PD1),pEC50 (PD-1/PD-L1 interaction),SMILES
≥ 8.00,7.00 to 8.00,COc1nc(-c2cccc(-c3cccc(NC(=O)c4ccnn(C)c4=O)c3Cl)c2Cl)cc(C)c1CN1CC(C(=O)O)C1 [Compound C-88]
≥ 8.00,7.00 to 8.00,CCOC(=O)C1CN(Cc2c(C)cc(-c3cccc(-c4cccc(NC(=O)c5ccnn(C)c5=O)c4Cl)c3Cl)nc2OC)C1 [Compound C-89]
≥ 8.00,7.00 to 8.00,CCOC(=O)C1CN(Cc2c(C)cc(-c3cccc(-c4cccc(NC(=O)c5ccnn(C)c5=O)c4C)c3Cl)nc2OC)C1 [Compound C-90]
≥ 8.00,7.00 to 8.00,COc1nc(-c2cccc(-c3cccc(NC(=O)c4ccnn(C)c4=O)c3C)c2Cl)cc(C)c1CN1CC(C(=O)O)C1 [Compound C-91]
≥ 8.00,7.00 to 8.00,COc1cc(C(=O)Nc2cccc(-c3cccc(-c4ccc(CN[C@@H]5CCOC[C@@H]5O)c(OC)n4)c3Cl)c2Cl)c(=O)n(C)n1 [Compound C-92]
7.00 to 8.00,< 5.30,CCOC(=O)N(Cc1ncc(-c2cccc(-c3cccc(NC(=O)c4ccnn(C)c4=O)c3C)c2Cl)nc1OC)C[C@@H]1CCC(=O)N1 [Compound D-2]
≥ 8.00,< 5.00,COc1nc(-c2cccc(-c3cccc(NC(=O)c4ccnn(C)c4=O)c3Cl)c2Cl)ccc1CN1C(=O)O[C@H]2COCC[C@H]21 [Compound E-1]
